Results from US20240150360A1 (THE REGENTS OF THE UNIVERSITY OF MICHIGAN, priority 2021, published 2024).
Like-named read-outs stand apart in the source and are kept apart here.

Key:
CBP = target: T1, CBP (Homo sapiens, UniProt Q92793); experiment: CBP degradation in 22Rv1 cells (5 h); assay type: cell-based; conditions: 22Rv1 cells, 5 h; for Dmax: 22Rv1, 5 h, read-out: CBP Degradation (22Rv1, 5 h) DCmax
T1 construct: endogenous in cells; host or cells: 22Rv1 (ATCC CRL-2505) human prostate cancer cells
T1 sequence (Q92793 whole entry): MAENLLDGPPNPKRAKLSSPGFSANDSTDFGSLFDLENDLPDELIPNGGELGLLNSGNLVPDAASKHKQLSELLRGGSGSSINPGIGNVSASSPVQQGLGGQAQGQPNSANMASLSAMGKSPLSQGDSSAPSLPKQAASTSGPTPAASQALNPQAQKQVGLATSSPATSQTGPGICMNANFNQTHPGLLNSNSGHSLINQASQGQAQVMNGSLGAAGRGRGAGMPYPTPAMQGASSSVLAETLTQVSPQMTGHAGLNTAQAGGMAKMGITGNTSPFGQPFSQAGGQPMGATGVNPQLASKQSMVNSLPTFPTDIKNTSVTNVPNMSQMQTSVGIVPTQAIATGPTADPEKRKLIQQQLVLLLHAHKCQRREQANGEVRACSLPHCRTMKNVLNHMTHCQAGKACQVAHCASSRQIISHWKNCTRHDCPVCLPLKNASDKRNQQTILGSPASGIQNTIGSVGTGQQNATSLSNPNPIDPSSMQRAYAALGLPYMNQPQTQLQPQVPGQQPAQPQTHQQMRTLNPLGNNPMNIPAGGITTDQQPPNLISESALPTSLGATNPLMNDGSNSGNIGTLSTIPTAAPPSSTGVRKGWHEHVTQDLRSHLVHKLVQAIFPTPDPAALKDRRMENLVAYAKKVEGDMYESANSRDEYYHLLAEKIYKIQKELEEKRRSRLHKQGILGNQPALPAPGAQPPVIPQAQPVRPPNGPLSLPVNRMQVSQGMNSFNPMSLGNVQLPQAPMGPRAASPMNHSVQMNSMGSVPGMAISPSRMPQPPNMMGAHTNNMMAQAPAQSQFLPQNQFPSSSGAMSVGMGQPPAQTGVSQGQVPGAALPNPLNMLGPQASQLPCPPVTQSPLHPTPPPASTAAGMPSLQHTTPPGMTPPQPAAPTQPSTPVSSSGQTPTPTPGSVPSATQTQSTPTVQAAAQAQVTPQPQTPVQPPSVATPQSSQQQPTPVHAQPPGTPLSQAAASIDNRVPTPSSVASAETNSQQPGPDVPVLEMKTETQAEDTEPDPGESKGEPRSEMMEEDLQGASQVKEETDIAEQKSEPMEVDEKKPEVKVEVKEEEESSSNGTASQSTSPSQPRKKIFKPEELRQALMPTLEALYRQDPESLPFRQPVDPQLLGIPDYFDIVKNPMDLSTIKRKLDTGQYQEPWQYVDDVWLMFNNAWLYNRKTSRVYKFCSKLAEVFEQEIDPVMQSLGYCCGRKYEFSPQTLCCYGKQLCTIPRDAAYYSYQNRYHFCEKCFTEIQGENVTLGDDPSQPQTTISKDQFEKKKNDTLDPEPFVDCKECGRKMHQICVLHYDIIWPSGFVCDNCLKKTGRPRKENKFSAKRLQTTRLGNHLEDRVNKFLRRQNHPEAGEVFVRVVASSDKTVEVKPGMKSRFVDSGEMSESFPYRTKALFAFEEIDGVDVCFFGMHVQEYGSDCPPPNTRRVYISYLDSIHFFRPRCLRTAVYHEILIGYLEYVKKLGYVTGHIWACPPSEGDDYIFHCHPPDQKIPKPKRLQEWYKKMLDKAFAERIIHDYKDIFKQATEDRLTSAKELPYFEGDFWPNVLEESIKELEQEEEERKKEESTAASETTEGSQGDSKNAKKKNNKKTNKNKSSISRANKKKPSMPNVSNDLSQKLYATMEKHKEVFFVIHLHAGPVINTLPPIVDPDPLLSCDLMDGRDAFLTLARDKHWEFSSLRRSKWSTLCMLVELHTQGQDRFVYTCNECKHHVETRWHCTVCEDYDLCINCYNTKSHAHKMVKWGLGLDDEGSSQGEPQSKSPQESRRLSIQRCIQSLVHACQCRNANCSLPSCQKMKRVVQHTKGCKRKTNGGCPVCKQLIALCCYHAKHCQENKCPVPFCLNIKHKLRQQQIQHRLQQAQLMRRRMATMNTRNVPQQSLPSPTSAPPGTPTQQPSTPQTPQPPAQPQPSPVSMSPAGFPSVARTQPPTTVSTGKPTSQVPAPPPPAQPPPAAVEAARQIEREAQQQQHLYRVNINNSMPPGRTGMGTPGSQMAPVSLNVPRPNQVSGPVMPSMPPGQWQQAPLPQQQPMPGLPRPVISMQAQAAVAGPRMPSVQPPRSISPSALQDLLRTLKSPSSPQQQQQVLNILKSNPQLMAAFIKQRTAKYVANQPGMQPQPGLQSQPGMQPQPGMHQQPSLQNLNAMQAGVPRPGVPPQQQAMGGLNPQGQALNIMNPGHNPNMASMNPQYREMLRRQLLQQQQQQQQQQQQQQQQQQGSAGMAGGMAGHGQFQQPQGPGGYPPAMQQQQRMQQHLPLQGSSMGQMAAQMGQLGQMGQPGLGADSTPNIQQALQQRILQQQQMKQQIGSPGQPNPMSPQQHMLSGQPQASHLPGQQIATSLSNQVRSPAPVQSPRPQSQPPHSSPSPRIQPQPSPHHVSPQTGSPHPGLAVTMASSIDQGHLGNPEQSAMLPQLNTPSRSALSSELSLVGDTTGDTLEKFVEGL
From the text: Biological Assays. […] Cells with 3-8 passages after purchase were used in experiments.

22Rv1 cells = experiment: Cell growth inhibition assay (CellTiter-Glo) in 22Rv1; assay type: cell-based, human; conditions: 22Rv1 cells, 96 h incubation, read-out: Cell Growth Inhibition (IC50) 22Rv1
Experimental: Biological Assays. CBP/p300 degradation activity and cell growth inhibition were evaluated in the human prostate cancer cell line 22Rv1 (ATCC© CRL-2505™) purchased from the American Type Culture Collection (ATCC), Manassas, VA, and maintained and cultured in Dulbecco's Modified Eagle's medium (DMEM) containing 10% fetal bovine serum, 1 unit/ml of penicillin and 1 μg/ml of streptomycin. Cells with 3-8 passages after purchase were used in experiments.
Cell Growth Inhibition Assay Protocol. 22RV1 cells were seeded at a concentration of 4000 cells/well in 100 μl culture medium and 2 μl of test compound (final concentration start from 10 μM and 3 times dilution) into 96 well microplates (Corning 3903). The cell cultures were incubated for 96 h at +37° C. and 5% CO2. The plate and its contents were equilibrated to room temperature for approximately 30 minutes. 100 μl of CellTiter-Glo® 2.0 Reagent equal to the volume of cell culture medium present was added in each well. The contents were mixed for 2 minutes on an orbital shaker. The plate was allowed to incubate at room temperature for 10 minutes. The luminescence was recorded. The data was analyzed by Prism GraphPad 8.

HL60 = experiment: Cell growth inhibition in HL60; assay type: cell-based; conditions: read-out: Cell Growth Inhibition (IC50) HL60
[1] = Homo sapiens, HL-60, HL60 cells

CBP Degradation (22Rv1, 5 h) DCmax (CBP) | DC50 (CBP) [nM] | IC50 (22Rv1 cells) [nM] | IC50 (HL60; HL60 cells) [nM] | Dmax (CBP) [%] | IC50 (22Rv1 cells; Homo sapiens, 22Rv1, 96 h) [nM] | IC50 (HL60; [1]) [nM] | SMILES
– | < 100 | – | – | > 70 | > 10000 | < 1000 | CC(=O)N1CCc2c(c(N3CCCc4ccc(C(F)F)cc43)nn2C2CCN(C(=O)CN3Cc4cc5c(cc4C3)C(=O)N(C3CCC(=O)NC3=O)C5=O)CC2)C1 (stereo not shown) [CP-010, 6-(2-(4-(5-acetyl-3-(7-(difluoromethyl)-3,4-dihydroquinolin-1(2H)-yl)-4,5,6,7-tetrahydro-1H-pyrazolo[4,3-c]pyridin-1-yl)piperidin-1-yl)-2-oxoethyl)-2-(2,6-dioxopiperidin-3-yl)-6,7-dihydropyrrolo[3,4-f]isoindole-1,3(2H,5H)-dione]
– | < 10 | – | – | > 70 | < 10000 | < 100 | CC(=O)N1CCc2c(c(N3CCCc4cc(-c5cnn(CCCN6Cc7cc8c(cc7C6)C(=O)N(C6CCC(=O)NC6=O)C8=O)c5)c(C(F)F)cc43)nn2C2CCOCC2)C1 (stereo not shown) [CP-073, 6-(3-(4-(1-(5-acetyl-1-(tetrahydro-2H-pyran-4-yl)-4,5,6,7-tetrahydro-1H-pyrazolo[4,3-c]pyridin-3-yl)-7-(difluoromethyl)-1,2,3,4-tetrahydroquinolin-6-yl)-1H-pyrazol-1-yl)propyl)-2-(2,6-dioxopiepridin-3-yl)-6,7-dihydropyrrolo[3,4-f]isoindole-1,3(2H,5H)-dione]
+++ (>90% = +++) | < 10 | < 1000 | < 100 | – | – | – | CC(=O)N1CCc2c(c(N3CCCc4cc(-c5cnn(C)c5)c(C(F)F)cc43)nn2C2CCC(C(=O)N3Cc4cc5c(cc4C3)C(=O)N(C3CCC(=O)NC3=O)C5=O)CC2)C1 (stereo not shown) [CP-034, 6-(4-(5-acetyl-3-(7-(difluoromethyl)-6-(1-methyl-1H-pyrazol-4-yl)-3,4-dihydroquinolin-1(2H)-yl)-4,5,6,7-tetrahydro-1H-pyrazolo[4,3-c]pyridin-1-yl)cyclohexane-1-carbonyl)-2-(2,6-dioxopiperidin-3-yl)-6,7-dihydropyrrolo[3,4-f]isoindole-1,3(2H,5H)-dione]
– | < 10 | – | – | > 50 | < 1000 | < 100 | CC(=O)N1CCc2c(c(N3CCCc4cc(-c5cnn(C)c5)c(C(F)F)cc43)nn2C2CCC(CC(=O)N3CCc4cc5c(cc4C3)C(=O)N(C3CCC(=O)NC3=O)C5=O)CC2)C1 (stereo not shown) [CP-028, 6-(2-(4-(5-acetyl-3-(7-(difluoromethyl)-6-(1-methyl-1H-pyrazol-4-yl)-3,4-dihydroquinolin-1(2H)-yl)-4,5,6,7-tetrahydro-1H-pyrazolo[4,3-c]pyridin-1-yl)cyclohexyl)acetyl)-2-(2,6-dioxopiperidin-3-yl)-5,6,7,8-tetrahydro-1H-pyrrolo[3,4-g]isoquinoline-1,3(2H)-dione]

The remaining lines, values behind:

SMILES | CBP Degradation (22Rv1, 5 h) DCmax (CBP) | DC50 (CBP) [nM] | IC50 (22Rv1 cells) [nM] | IC50 (HL60; HL60 cells) [nM] | Dmax (CBP) [%] | IC50 (22Rv1 cells; Homo sapiens, 22Rv1, 96 h) [nM] | IC50 (HL60; [1]) [nM]
CC(=O)N1CCc2c(c(N3CCCc4cc(-c5cnn(C)c5)c(C(F)F)cc43)nn2C2CCC(C(=O)N3CCc4cc5c(cc4C3)C(=O)N(C3CCC(=O)NC3=O)C5=O)CC2)C1 (stereo not shown) [CP-035, 6-(4-(5-acetyl-3-(7-(difluoromethyl)-6-(1-methyl-1H-pyrazol-4-yl)-3,4-dihydroquinolin-1(2H)-yl)-4,5,6,7-tetrahydro-1H-pyrazolo[4,3-c]pyridin-1-yl)cyclohexane-1-carbonyl)-2-(2,6-dioxopiperidin-3-yl)-5,6,7,8-tetrahydro-1H-pyrrolo[3,4-g]isoquinoline-1,3(2H)-dione] | + (>50% =) | < 100 | < 10000 | < 1000 | – | – | –
CC(=O)N1CCc2c(c(N3CCCc4cc(-c5cnn(C)c5)c(C(F)F)cc43)nn2C[C@H]2CC[C@H](C(=O)N3Cc4cc5c(cc4C3)C(=O)N(C3CCC(=O)NC3=O)C5=O)CC2)C1 (stereo partly drawn) [CP-029, trans-6-(4-((5-acetyl-3-(7-(difluoromethyl)-6-(1-methyl-1H-pyrazol-4-yl)-3,4-dihydroquinolin-1(2H)-yl)-4,5,6,7-tetrahydro-1H-pyrazolo[4,3-c]pyridin-1-yl)methyl)cylcohexane-1-carbonyl)-2-(2,6-dioxopiperidin-3-yl)-6,7-dihydropyrrolo[3,4-f]isoindole-1,3(2H,5H)-dione] | – | < 100 | – | – | > 50 | < 10000 | < 10000
CC(=O)N1CCc2c(c(N3CCCc4cc(-c5cnn(C)c5)c(C(F)F)cc43)nn2C[C@H]2CC[C@@H](N3CCc4cc5c(cc4C3)C(=O)N(C3CCC(=O)NC3=O)C5=O)CC2)C1 (relative stereo) [CP-042, 6-(4-((5-acetyl-3-(7-(difluoromethyl)-6-(1-methyl-1H-pyrazol-4-yl)-3,4-dihydroquinolin-1(2H)-yl)-4,5,6,7-tetrahydro-1H-pyrazolo[4,3-c]pyridin-1-yl)methyl)cyclohexyl)-2-(2,6-dioxopiperidin-3-yl)-5,6,7,8-tetrahydro-1H-pyrrolo[3,4-g]isoquinoline-1,3(2H)-dione] | – | < 10 | – | – | > 90 | < 1000 | < 100
CC(=O)N1CCc2c(c(N3CCCc4cc(-c5cnn(CCCCN6CCc7cc8c(cc7C6)C(=O)N(C6CCC(=O)NC6=O)C8=O)c5)c(C(F)F)cc43)nn2C2CCOCC2)C1 (stereo not shown) [CP-070, 6-(4-(4-(1-(5-acetyl-1-(tetrahydro-2H-pyran-4-yl)-4,5,6,7-tetrahydro-1H-pyrazolo[4,3-c]pyridin-3-yl)-7-(difluoromethyl)-1,2,3,4-tetrahydroquinolin-6-yl)-1H-pyrazol-1-yl)butyl)-2-(2,6-dioxopiperidin-3-yl)-5,6,7,8-tetrahydro-1H-pyrrolo[3,4-g]isoquinoline-1,3(2H)-dione] | – | < 10 | – | – | > 70 | < 1000 | < 100
CC(=O)N1CCc2c(c(N3CCCc4cc(-c5cnn(C)c5)c(C(F)F)cc43)nn2C[C@H]2CC[C@@H](C(=O)N3Cc4cc5c(cc4C3)C(=O)N(C3CCC(=O)NC3=O)C5=O)CC2)C1 (stereo partly drawn) [CP-031, cis-6-(4-((5-acetyl-3-(7-(difluoromethyl)-6-(1-methyl-1H-pyrazol-4-yl)-3,4-dihydroquinolin-1(2H)-yl)-4,5,6,7-tetrahydro-1H-pyrazolo[4,3-c]pyridin-1-yl)methyl)cyclohexane-1-carbonyl)-2-(2,6-dioxopiperidin-3-yl)-6,7-dihydropyrrolo[3,4-f]isoindole-1,3(2H,5H)-dione] | – | < 100 | – | – | > 50 | < 10000 | < 1000
CC(=O)N1CCc2c(c(N3CCCc4cc(-c5cnn(C)c5)c(C(F)F)cc43)nn2C[C@H]2CC[C@@H](C(=O)N3CCc4cc5c(cc4C3)C(=O)N(C3CCC(=O)NC3=O)C5=O)CC2)C1 (stereo partly drawn) [CP-032, cis-6-(4-((5-acetyl-3-(7-(difluoromethyl)-6-(1-methyl-1H-pyrazol-4-yl)-3,4-dihydroquinolin-1(2H)-yl)-4,5,6,- tetrahydro-1H-pyrazolo[4,3-c]pyridin-1-yl)methyl)cyclohexane-1-carbonyl)-2-(2,6-dioxopiperidin-3-yl)-5,6,7,8-tetrahydro-1H-pyrrolo[3,4-g]isoquinoline-1,3(2H)-dione] | – | < 100 | – | – | > 50 | < 10000 | < 1000
